Measurements reported in ChEMBL document CHEMBL6092203, “Discovery of Novel PROTAC-Based HPK1 Degraders with High Potency and Selectivity for Cancer Immunotherapy” (J Med Chem, 2024).
Active and inactive are the calls of the source. The calls are words filed in the database; no cut-off is given here.

Key:
MC-38 [1] = experiment: Antitumor activity against mouse MC38 cells implanted in C57BL/6J mouse assessed as tumor weight inhibition rate at 0.5 mg/kg, po BID measured after 4 weeks; type: functional; parameters: scale not given: the % may be the effect or the level left
in vivo [2] = conditions: beagle, dog, po, 5 mg/kg
Description: Cmax in Beagle dog at 5 mg/kg, po measured upto 24 hrs by LC-MS analysis

in vivo [3] = conditions: female, Sprague-Dawley, rat, po, 30 mg/kg
[4] = Half-life in C57BL/6J mouse at 10 mg/kg, po measured upto 24 hrs by LC-MS analysis; conditions: in vivo
MC-38 [5] = experiment: Antitumor activity against mouse MC38 cells implanted in C57BL/6J mouse assessed as tumor growth inhibition at 1 mg/kg, po BID measured after 4 weeks; type: functional; conditions: MC-38, 672 h, read-out: TGI
[6] = Apparent permeability across apical to basolateral side in human Caco-2 cells at 10 uM incubated for 2 hrs by LC-MS/MS analysis; type: ADME, cell-based
[7] = Induction of p-SLP76 at Ser376 protein degradation in human Jurkat cells incubated for 24 hrs by Western blotting analysis; type: cell-based
[8] = Drug metabolism in mouse hepatocytes assessed as phase 1 metabolites formation at 10 uM incubated for 120 mins by UHPLC-UV/MS/MS method; type: ADME, cell-based, Hepatocyte; conditions: 2 h
in vivo [9] = conditions: Sprague-Dawley, rat, po, 1 mg/kg
Cytochrome P450 2D6 = Cytochrome P450 2D6 (Homo sapiens, UniProt P10635); experiment: Inhibition of CYP2D6 in human liver microsomes using dextromethorphan as substrate in presence of NADPH; type: ADME, Microsome
[10] = AUC(0 to 24 hrs) in female Sprague-Dawley rat at 2 mg/kg/day, po measured at day 1; type: ADME, organism-based; conditions: in vivo, time 1 day
MC-38 [11] = experiment: Antitumor activity against mouse MC38 cells implanted in C57BL/6J mouse assessed as tumor growth inhibition at 0.5 mg/kg, po BID measured after 4 weeks; type: functional; conditions: MC-38, 672 h, read-out: TGI
[12] = Drug metabolism in human hepatocytes assessed as phase 1 metabolites formation at 10 uM incubated for 120 mins by UHPLC-UV/MS/MS method; type: ADME, cell-based, Hepatocyte; conditions: 2 h
[13] = Clearance in Sprague-Dawley rat at 2 mg/kg, iv measured upto 24 hrs by LC-MS analysis; conditions: in vivo
[14] = Plasma protein binding in monkey at 10 uM incubated for 6 hrs by equilibrium dialysis based LC-MS/MS method; type: ADME, cell-free, Macaca mulatta; conditions: rhesus monkey, read-out: PPB (converted)
[15] = Volume of distribution at steady state in C57BL/6J mouse at 2 mg/kg, iv measured upto 24 hrs by LC-MS analysis; type: ADME, organism-based; conditions: in vivo, read-out: Vdss
in vitro [16] = conditions: human, liver microsomes
MC-38 [17] = experiment: Synergistic antitumor activity against mouse MC38 cells implanted in C57BL/6J mouse assessed as tumor weight inhibition rate at 1 mg/kg, po bid measured after 4 weeks in presence of 5 mg/kg anti-PD1 and measured twice a week; type: functional; parameters: scale not given: the % may be the effect or the level left
[18] = Metabolic stability in mouse hepatocytes assessed as intrinsic clearance at 1 uM incubated for 90 mins by LC-MS/MS method; type: ADME, cell-based, Hepatocyte; conditions: 1.5 h
[19] = Apparent permeability across basolateral to apical side in human Caco-2 cells at 10 uM incubated for 2 hrs by LC-MS/MS analysis; type: ADME, cell-based
[20] = Tmax in male Sprague-Dawley rat at 30 mg/kg/day, po measured at day 14; type: ADME, organism-based; conditions: in vivo, time 14 day
Jurkat = experiment: Effect on p-SLP76 at Y145 residue protein expression in human Jurkat cells at 1 to 2000 nM incubated for 24 hrs by Western blotting analysis; type: functional, cell-based; conditions: dose 1-2000 nM
[21] = Drug absorption in mouse at 10 to 100 mg/kg, po; type: ADME, organism-based; conditions: in vivo, dose 10-100 mg/kg
[22] = target: Mitogen-activated protein kinase kinase kinase kinase 4 (Homo sapiens) (UniProt O95819); experiment: Induction of HGK degradation in human Jurkat cells at 1 to 1000 nM incubated for 24 hrs by Western blotting analysis; type: cell-based; conditions: dose 1-1000 nM
[23] = target: T1, Protein cereblon/Mitogen-activated protein kinase kinase kinase kinase 1 (Homo sapiens, UniProt Q92918+Q96SW2); experiment: PROTAC activity at CRBN/HPK1 in human Jurkat cells assessed as HPK1 degradation at 1 uM measured after 24 hrs by Western blotting analysis; type: cell-based
[24] = target: T1, Protein cereblon/Mitogen-activated protein kinase kinase kinase kinase 1; experiment: PROTAC activity at CRBN/HPK1 in human Jurkat cells assessed as HPK1 degradation at 1 uM pretreated with MLN4924 for 4 hrs followed by compound addition and measured after 24 hrs by Western blotting analysis; type: cell-based
[25] = Induction of INFgamma secretion in human T-cells incubated for 48 hrs by ELISA; type: functional, cell-based; conditions: T-cell
MC-38 [26] = experiment: Antitumor activity against mouse MC38 cells implanted in C57BL/6J mouse assessed as reduction in tumor weight at 1 mg/kg, po BID administered for 3 to 4 weeks (reference value: 1.79 +/- 0.24 g); type: functional; conditions: time 3-4 weeks
[27] = Half-life in Beagle dog at 1 mg/kg, iv measured upto 24 hrs by LC-MS analysis; conditions: in vivo
in vitro [28] = conditions: human, hepatocytes
MC-38 [29] = experiment: Synergistic antitumor activity against mouse MC38 cells implanted in C57BL/6J mouse assessed as reduction in tumor volume at 0.5 mg/kg, po bid administered for 3 to 4 weeks in presence of 5 mg/kg anti-PD1 and measured twice a week (reference value: 1549.22 +/- 217.92 mm3); type: functional; conditions: time 3-4 weeks
in vivo [30] = conditions: male, Sprague-Dawley, rat, po, 30 mg/kg
[31] = Tmax in female Sprague-Dawley rat at 100 mg/kg/day, po measured at day 14; type: ADME, organism-based; conditions: in vivo, time 14 day
[32] = AUC(0 to 24 hrs) in female Sprague-Dawley rat at 30 mg/kg/day, po measured at day 1; type: ADME, organism-based; conditions: in vivo, time 1 day
[33] = AUCinfinity in Sprague-Dawley rat at 1 mg/kg, po measured upto 24 hrs by LC-MS analysis; type: ADME, organism-based; conditions: in vivo
[34] = Toxicity in C57BL/6J mouse assessed as change in body weight at 0.1 to 1 mg/kg, po bid measured after 28 days in presence of 5 mg/kg anti-PD1; type: organism-based; conditions: in vivo, 672 h, dose 0.1-1 mg/kg, time 28 day
[35] = Volume of distribution at steady state in Beagle dog at 1 mg/kg, iv measured upto 24 hrs by LC-MS analysis; type: ADME, organism-based, Canis lupus familiaris; conditions: in vivo
[36] = AUC(0 to 24 hrs) in male Sprague-Dawley rat at 100 mg/kg/day, po measured at day 1; type: ADME, organism-based; conditions: in vivo, time 1 day
[37] = Toxicity in C57BL/6J mouse assessed as change in body weight at 100 mg/kg, po qd measured after 28 days in presence of 5 mg/kg anti-PD1; type: organism-based; conditions: in vivo, 672 h, time 28 day
[38] = Drug metabolism in mouse hepatocytes assessed as phase 2 metabolites formation at 10 uM incubated for 120 mins by UHPLC-UV/MS/MS method; type: ADME, cell-based, Hepatocyte; conditions: 2 h

T1 sequence (Q92918 whole entry, looked up): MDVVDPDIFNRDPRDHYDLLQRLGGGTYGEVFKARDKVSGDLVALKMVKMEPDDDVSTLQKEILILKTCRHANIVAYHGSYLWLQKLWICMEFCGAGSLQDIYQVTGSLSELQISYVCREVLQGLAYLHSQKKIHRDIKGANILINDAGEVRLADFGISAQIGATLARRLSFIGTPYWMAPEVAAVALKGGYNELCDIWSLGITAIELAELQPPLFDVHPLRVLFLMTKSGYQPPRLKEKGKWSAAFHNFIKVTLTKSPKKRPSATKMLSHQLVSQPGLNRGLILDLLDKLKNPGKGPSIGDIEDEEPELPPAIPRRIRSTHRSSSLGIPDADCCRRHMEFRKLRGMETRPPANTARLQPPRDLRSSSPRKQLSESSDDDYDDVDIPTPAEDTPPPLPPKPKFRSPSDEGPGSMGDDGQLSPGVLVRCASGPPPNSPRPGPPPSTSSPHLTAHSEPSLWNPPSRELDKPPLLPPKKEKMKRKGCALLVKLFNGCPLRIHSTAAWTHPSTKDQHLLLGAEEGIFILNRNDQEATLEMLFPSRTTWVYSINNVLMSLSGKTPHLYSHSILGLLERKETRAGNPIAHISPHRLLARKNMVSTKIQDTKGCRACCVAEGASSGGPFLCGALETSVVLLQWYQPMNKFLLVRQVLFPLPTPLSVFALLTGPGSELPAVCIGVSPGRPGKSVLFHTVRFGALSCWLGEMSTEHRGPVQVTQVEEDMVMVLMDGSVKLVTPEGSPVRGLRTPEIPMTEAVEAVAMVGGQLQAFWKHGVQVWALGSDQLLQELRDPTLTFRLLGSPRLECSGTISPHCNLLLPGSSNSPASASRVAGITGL
T1 sequence (Q96SW2 whole entry, looked up): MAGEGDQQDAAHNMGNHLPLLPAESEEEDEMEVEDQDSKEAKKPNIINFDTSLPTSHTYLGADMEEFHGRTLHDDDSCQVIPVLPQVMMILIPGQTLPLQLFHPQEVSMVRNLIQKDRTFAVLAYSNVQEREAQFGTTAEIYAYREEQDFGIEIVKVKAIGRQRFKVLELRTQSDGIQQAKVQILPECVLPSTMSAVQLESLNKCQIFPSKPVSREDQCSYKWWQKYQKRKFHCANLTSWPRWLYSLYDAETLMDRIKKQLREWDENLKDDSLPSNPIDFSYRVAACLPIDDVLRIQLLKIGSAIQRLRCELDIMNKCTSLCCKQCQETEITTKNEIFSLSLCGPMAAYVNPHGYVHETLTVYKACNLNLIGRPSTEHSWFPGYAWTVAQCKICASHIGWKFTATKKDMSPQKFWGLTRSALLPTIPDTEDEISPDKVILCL
Chain of Mitogen-activated protein kinase kinase kinase kinase 4 (Homo sapiens) (O95819 2-1239 limits assumed): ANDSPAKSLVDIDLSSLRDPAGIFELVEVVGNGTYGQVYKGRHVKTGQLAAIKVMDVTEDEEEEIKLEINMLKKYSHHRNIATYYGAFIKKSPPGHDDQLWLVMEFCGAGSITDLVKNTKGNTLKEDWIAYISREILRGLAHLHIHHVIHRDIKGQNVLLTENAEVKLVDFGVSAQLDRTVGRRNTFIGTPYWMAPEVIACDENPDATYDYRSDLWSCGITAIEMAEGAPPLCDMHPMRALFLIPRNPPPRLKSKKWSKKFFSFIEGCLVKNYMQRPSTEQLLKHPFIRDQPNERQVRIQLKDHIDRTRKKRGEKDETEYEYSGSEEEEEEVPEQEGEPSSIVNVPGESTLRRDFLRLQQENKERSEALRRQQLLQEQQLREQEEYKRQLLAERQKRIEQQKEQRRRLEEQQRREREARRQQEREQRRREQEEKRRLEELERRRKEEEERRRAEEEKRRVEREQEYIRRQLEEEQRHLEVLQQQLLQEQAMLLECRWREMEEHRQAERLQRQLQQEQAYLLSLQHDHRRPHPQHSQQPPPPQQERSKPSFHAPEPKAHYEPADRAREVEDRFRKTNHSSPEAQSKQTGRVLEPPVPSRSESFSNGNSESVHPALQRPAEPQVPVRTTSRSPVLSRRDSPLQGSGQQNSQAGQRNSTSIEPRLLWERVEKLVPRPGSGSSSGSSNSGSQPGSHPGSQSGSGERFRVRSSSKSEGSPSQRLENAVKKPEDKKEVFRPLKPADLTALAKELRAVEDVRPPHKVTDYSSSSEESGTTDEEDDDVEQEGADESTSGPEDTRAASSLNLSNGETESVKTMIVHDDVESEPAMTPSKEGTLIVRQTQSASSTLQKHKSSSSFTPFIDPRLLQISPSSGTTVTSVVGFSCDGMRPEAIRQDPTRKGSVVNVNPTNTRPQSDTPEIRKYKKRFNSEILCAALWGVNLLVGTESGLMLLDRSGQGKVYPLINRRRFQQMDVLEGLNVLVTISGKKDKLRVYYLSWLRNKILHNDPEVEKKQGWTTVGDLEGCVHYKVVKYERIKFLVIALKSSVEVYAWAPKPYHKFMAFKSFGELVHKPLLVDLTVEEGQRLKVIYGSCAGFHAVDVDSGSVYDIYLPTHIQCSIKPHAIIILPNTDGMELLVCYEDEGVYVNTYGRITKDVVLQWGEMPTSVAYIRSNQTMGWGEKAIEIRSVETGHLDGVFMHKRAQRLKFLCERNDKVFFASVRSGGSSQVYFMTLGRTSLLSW
Chain of Cytochrome P450 2D6 (P10635 whole entry): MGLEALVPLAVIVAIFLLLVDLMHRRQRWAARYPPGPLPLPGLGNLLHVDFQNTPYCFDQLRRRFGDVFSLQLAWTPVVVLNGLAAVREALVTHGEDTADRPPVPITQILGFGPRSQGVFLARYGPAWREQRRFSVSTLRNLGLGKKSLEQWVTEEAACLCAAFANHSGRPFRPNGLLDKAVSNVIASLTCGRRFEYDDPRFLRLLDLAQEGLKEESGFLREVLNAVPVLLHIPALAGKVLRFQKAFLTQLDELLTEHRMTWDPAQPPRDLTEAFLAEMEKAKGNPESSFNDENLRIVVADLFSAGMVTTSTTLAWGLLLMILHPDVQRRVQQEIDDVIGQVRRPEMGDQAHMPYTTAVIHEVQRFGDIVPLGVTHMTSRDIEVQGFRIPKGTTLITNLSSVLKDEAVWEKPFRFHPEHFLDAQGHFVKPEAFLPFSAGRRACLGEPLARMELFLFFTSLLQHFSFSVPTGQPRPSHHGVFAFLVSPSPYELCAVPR

Compound: O=C1CCN(c2cc(C(=O)N3CCC(CC4CCN(c5ccc(-c6cnc7[nH]cc(-c8cnn(CC(F)(F)F)c8)c7n6)cn5)CC4)CC3)ccc2Cl)C(=O)N1
- Activity (MC-38 [1]): 42.22%
- Cmax at 24 h (in vivo [2]): 111 ng/mL
- Cmax at 336 h (in vivo [3]): 4210 ng/mL
- half-life at 24 h [4]: 3.44 h
- inhibition in vivo at 1 mg/kg (MC-38 [5]): 17.5%
- Papp A→B at 2 h, 10 µM [6]: 0.16 ×10⁻⁶ cm/s
- DC50 [7]: 5.63 nM
- Drug metabolism [8]: metabolite_detected
- bioavailability at 24 h (in vivo [9]): 19.2%
- IC50 (Cytochrome P450 2D6): > 10000 nM
- AUC(0-t) at 24 h [10]: 539 ng·h/mL
- inhibition in vivo at 0.5 mg/kg (MC-38 [11]): 51.4%
- Drug metabolism [12]: metabolite_detected
- clearance at 24 h [13]: 4.17 mL/min/kg
- fraction unbound at 6 h, 10 µM [14]: 0.0002
- Vd [15]: 0.659 L/kg
- half-life at 0.75 h, 1 µM (in vitro [16]): > 5 h
- Activity (MC-38 [17]): 76.61%
- CLH [18]: 1.52 µL/min/mg
- Papp B→A at 2 h, 10 µM [19]: 0.112 ×10⁻⁶ cm/s
- Tmax [20]: 8 h
- Activity (Jurkat): inactive
- Drug absorption [21]: Active
- Activity [22]: inactive
- Activity [23]: Active
- Activity [24]: inactive
- EC50 [25]: 32.6 nM
- Activity (MC-38 [26]): 1.56 g
- half-life at 24 h [27]: 4.86 h
- half-life at 1.5 h, 1 µM (in vitro [28]): 6.02 h
- Activity (MC-38 [29]): 139.36 mm3
- Cmax at 24 h (in vivo [30]): 3560 ng/mL
- Tmax [31]: 8.67 h
- AUC(0-t) at 24 h [32]: 51300 ng·h/mL
- AUC(0-inf) [33]: 894 ng·h/mL
- Activity [34]: Non-toxic
- Vdss [35]: 0.386 L/kg
- AUC(0-t) at 24 h [36]: 107000 ng·h/mL
- Activity [37]: Non-toxic
- Drug metabolism [38]: metabolite_detected
